Data set [1] can be described thus: Solubility in water. It is filed as physicochemical.
For data set [2], the system named is PTZ-induced seizures. Description: Acute subcutaneous PTZ-induced seizure test. Type of data set: in vivo, mice. Here is the method:
Anticonvulsant effects of the test compounds were evaluated using subcutaneous PTZ-induced seizure test (subcutaneous PTZ). […] The Z-acid and its analogs were administered intraperitoneally at least 30 min before subcutaneous administration of convulsive dose of PTZ (110 mg/kg). […] Latency to PTZ-induced threshold seizures was also calculated. The latency to threshold seizure is defined as the interval between the time of the PTZ-injection and the occurrence of first episode of threshold seizure. Protection of testing material against PTZ-induced mortality within 24 hours was also evaluated. […] NMRI male mice weighing between 18-22 g were selected for the study. PTZ 110 mg/Kg was administered to the PTZ group and observed the first myoclonic jerk and HLTE.

In data set [3] the test system is PTZ-induced kindling. The data set can be described thus: scPTZ-induced chemical kindling model of epileptogenesis. It is filed as in vivo, NMRI mice. Here is the method:
The chemical kindling was induced according to the modified method of De Sarro i.e. by repeated treatment of mice with sub-convulsive dose of pentylenetetrazole (subcutaneous, 50 mg/kg) on alternate days. Four doses of Z-acid (150 mg/kg/day, 200 mg/kg/day, 250 mg/kg/day, and 300 mg/kg/day) were administered daily (intraperitoneal). However, on the day of PTZ administration, animals were treated with the Z-acid 30 minutes before administering PTZ. After PTZ was injected, each animal was placed separately in a clear plexiglass cage for close observations for 1 hour. The drug control groups received daily valproic acid. The Racine scoring categorization of epileptic seizures pattern was used to monitor the animals (Table 1). The animals showing score 4-5 were considered to be fully kindled. The cumulative kindling score was then calculated. Experiments were terminated once the animals were fully kindled. At the end of each experiment, animals were humanely sacrificed.

The nature of data set [4]: Sub-chronic toxicity profile, intraperitoneal, 3 months. Type of data set: in vivo. Here is the method: To evaluate the sub-chronic toxicity profile of Z-acid the compound was administered daily into mice at the dose of 300 mg/kg (intraperitoneal) for a period of 3 months. The animals were divided into […] (8 per group) as outlined below: • Group I normal control; • Group II treated daily for 1 week; • Group III treated daily for 2 weeks; • Group IV treated daily for 1 month; • Group V treated daily for 2 months; • Group VI treated daily for 3 months
At the end of the study, animals were anaesthetized, dissected and gross examination of vital organs were performed, along with serum and whole brain samples collection. Serum and brain sample were stored in −20° C. for further examination.

A short description of data set [5]: Pharmacokinetics in plasma and brain after single intraperitoneal dose (GC/MS). As to conditions: mice, 300 mg/kg intraperitoneal. Type of data set: in vivo. As to the method:
The pharmacokinetics of Z-acid in both plasma and brain after a single intraperitoneal dose of Z-acid (300 mg/kg) was studied in mice. Animals were sacrificed at 5 min, 15 min, 30 min, 60 min, 120 min, 180 min, and 240 min after the dose administration (n=4 for each time point). Blood samples were obtained in heparin containing vacutainers. The control group consists of the animals receiving no other treatment and this serve as blank plasma and aided in optimization and validation of the GC/MS method. The blood samples were later centrifuged to obtain plasma which was stored at −20° C. for further processing. Likewise, the brain samples were also collected from the sacrificed animals and stored at −20° C. for further processing on GC-MS.

The test system of data set [6] is PTZ-induced epileptiform activity. The data set can be described thus: PTZ-induced epileptiform activity, intraperitoneal administration (EEG protocol). As to conditions: for spike discharge: Z-acid 150 mg/kg i.p. or diazepam 5 mg/kg, 10 min after PTZ 100 mg/kg, vs PTZ-injected animals, P<0.01. It is filed as in vivo, rats. Here is the method:
In this set of experiment, effect of Z-acid was investigated on PTZ-induced epileptiform activity. Rats (210±10 g) were divided into six groups as control, diazepam, Z-acid, PTZ, PTZ+diazepam, PTZ+Z-acid with 6 sample size in each group. PTZ was injected at the dose of 100 mg/kg. Z-acid was intraperitoneally injected in anesthetized rats at the dose of 150 mg/kg whereas drug control group was treated with 5 mg/kg dose of diazepam. Saline was used as placebo. PTZ was prepared in saline whereas Z-acid was dissolved in 0.1 N NaOH. EEG was recorded from cortical region of the rat brain.
The protocol was started by anesthetizing rat followed by fixing the animal in stereotaxic apparatus for surgery. The skin was removed to expose the bregma and lambda region of the skull. Three holes of 0.6 mm diameter were drilled with the help of a manual drill. One hole was made on the parietal lobe for the placement of active electrode whereas two were made on the occipital lobes for reference and ground electrodes. A screw with the length of 5 mm and diameter of 0.5 mm was inserted on each hole and electrodes were then connected with the EEG recording system. The recording was started by monitoring the baseline EEG recording for 5 min. After 5 min of noise-free recording, PTZ was injected to induce acute seizures. The EEG recording after the injection of PTZ was continued for 10 min to observe the induction of epileptiform activity. […] After 10 min of recording, Z-acid was injected intraperitoneally to observe its effects on PTZ-induced epileptiform activity.

Data set [7] has as its system BDNF. The data set can be described thus: BDNF gene expression (qRT-PCR) in PTZ-induced acute seizure. It is filed as in vivo, rats. As to conditions: cortex and hippocampus, p<0.01. The source says:
(§1) Rats were decapitated after recording the EEG to collect the brain samples. Cortex and hippocampus regions of brain were excised out to conduct analysis of gene expression using qRT-PCR. The tissue samples were processed for RNA isolation followed by synthesis of cDNA using Revert Aid First strand cDNA synthesis kit (Thermo Scientific). The template cDNA were then used for the amplification of BDNF and Cfos using SYBER green qPCR Master mix (Thermo Scientific). The relative gene expression was determined by comparing 2-ΔΔCt values normalized to β-actin.

The test system of data set [8] is Cfos. Description: Cfos gene expression (qRT-PCR) in PTZ-induced acute seizure. It is filed as in vivo, rats. As to conditions: cortex and hippocampus, p<0.01.
Text: as §1

The subject of data set [9] is glutamate levels. Description: Glutamate levels (ELISA) in PTZ-induced acute seizure. It is filed as in vivo, rats. As to conditions: cortex and hippocampus, p<0.01. The source says: Glutamate levels were also estimated in cortex and hippocampus following the administration of Z-acid formulation I. The glutamate levels were estimated using ELISA kit method (Bioassay Technology Laboratory, E1474Ra).
In general terms: In an ELISA, binding on a coated surface is turned into a signal by an enzyme label.

Data set [10] is described as follows: Stability. It is filed as physicochemical.
Setting [11] is: 300, 400 and 500 mg/Kg intraperitoneal, 30 min before PTZ 110 mg/Kg, compared to PTZ group.
Setting [12] is: 150 mg/kg intraperitoneal, 10 min after PTZ.
The mark [13] stands for this setting: intranasal pre-treatment (Formulation I), vs PTZ.
The mark [14] stands for this setting: intraperitoneal experiment, vs PTZ alone.

Each structure is given as a SMILES string. “Also recorded” adds a separate entry of the source.

Regarding `CC1=CC(=CC(=O)O)CC(C)(C)C1` (single isomer, unassigned) [E/Z isomeric mixture, (E/Z)-2,2′-(3,5,5-trimethyl-2-cyclohexen-1-ylidene) acetic acid], the solubility in water result in [1] was “poorly soluble”.
The half-life is the time needed for the level to fall by half in the phase considered. A higher half-life goes with slow loss. As to `CC1=C/C(=C\C(=O)O)CC(C)(C)C1` [Z-acid, (Z)-2-(3,5,5-trimethyl-2-cyclohexen-1-ylidene) acetic acid], in data set [2] (setting [11]), the HLTE entry is listed as “prevented HLTE in all the animals” and the “onset of myoclonic seizure” value is “significantly delayed”. Further, the seizure scoring entry in [2] (300, 400 and 500 mg/Kg, compared to PTZ group (FIG. 1)) is “decreased the number seizure scoring significantly and dose dependently”. Also, the “development of kindling induced by scPTZ administration” value in data set [3] (300 mg/kg daily intraperitoneal, PTZ 50 mg/kg on alternate days) is “complete inhibition”. In data set [3] (daily intraperitoneal, doses tested 150-300 mg/kg/day), the “active dose able to inhibit the process of epileptogenesis” value is reported as 300 mg/kg body weight. Also, the “signs of toxicity, gross anatomy of organs” value in [4] (300 mg/kg daily intraperitoneal, 3 months) is “did not find any sign of toxicity; also recorded: no signs of toxicity”. In addition, in [4] (blood samples after 3 months daily dosing 300 mg/kg), the “LFT profile, CBC and LDH, creatinine, and urea levels” value is “normal range”. Besides, in data set [5] (brain), the “persistence or sequestration in brain” value was “No evidence”, the “time to disappearance from brain” value is recorded as at most 1 h and the “time to peak concentration in brain” value was at most 15 min. Moreover, in data set [5] (plasma), the “apparent volume of distribution” value was determined as 10 L, the “time to disappearance from plasma” value fell in the range of 2 to 2.5 h and the “time to peak concentration in plasma” value is at most 5 min. This compound had a half-life in [5] (mouse, ip, plasma) of 1 h. For the same compound, in data set [6] (setting [12]), the “time after administration at which PTZ-induced spikes were significantly reduced” value is recorded as 5 min and the “time after treatment at which PTZ-induced spikes completely diminished” value fell in the range of 7 to 10 min. For the same compound, the spike discharge entry in data set [6] is given as “significantly reduced”. In data set [7] (i.p. treatment, vs PTZ alone), the BDNF gene expression entry was “significantly reduced”. In addition, the BDNF gene expression entry in data set [7] (setting [13]) is “significantly reduced”. For the same compound, the Cfos gene expression entry in [8] (i.p. treatment, vs PTZ alone) is “significantly reduced”. The Cfos gene expression entry in [8] (setting [13]) was “significantly reduced”. For the same compound, the glutamate levels entry in data set [9] (intranasal experiment (Formulation I), vs PTZ) was “significantly reduced”. Further, the glutamate levels result in [9] (setting [14]) is “significantly reduced”. The “stability under all conditions used in various experiments” value in data set [10] was “stable”. Moreover, in data set [10] (room temperature and high temperature), the “stability in different organic solvents” value is reported as “stable”.
For `CN1C(=O)CN=C(c2ccccc2)c2cc(Cl)ccc21` [diazepam, reference compound], the spike discharge entry in data set [6] is recorded as “significantly reduced”. Moreover, in [7] (i.p. treatment, vs PTZ alone), the BDNF gene expression result is on record as “significantly reduced”. Also, the Cfos gene expression entry in data set [8] (i.p. treatment, vs PTZ alone) is on record as “significantly reduced”. Besides, in data set [9] (setting [14]), the glutamate levels entry was “significantly reduced”.
Consider `CCCC(CCC)C(=O)O` [valproic acid, reference compound], for which the “seizure pattern till the end of the kindling protocol” value in data set [3] (drug control, daily, compared to PTZ-kindled control group) is on record as “did not exhibit any seizure pattern”.

The values above are taken from patent US11419833B2, “Nasally administered pharmaceutical composition for the treatment of epilepsy and related disorders” (priority 2020, dated 2022).
